How the values were obtained:
[1] = test system: tumor necrosis factor (α); assay: Cytokine Induction in Human Cells: tumor necrosis factor (α) by ELISA or IGEN Assay; format: cell-based; parameters: key to Lowest Effective Concentration Tumor Necrosis Factor: A “*” indicates that no induction was seen at any of the tested concentrations; conditions: human PBMC, 18 to 24 hours incubation, compounds generally tested at 30-0.014 μM; for minimal effective concentration: read-out: Lowest Effective Concentration Tumor Necrosis Factor
Source text: (§1) An in vitro human blood cell system is used to assess cytokine induction. Activity is based on the measurement of interferon and tumor necrosis factor (α) (IFN and TNF, respectively) secreted into culture media as described by Testerman et. al. In “Cytokine Induction by the Immunomodulators Imiquimod and S-27609”, Journal of Leukocyte Biology, 58, 365-372 (September, 1995).
(§2) Whole blood from healthy human donors is collected by venipuncture into EDTA vacutainer tubes. Peripheral blood mononuclear cells (PBMC) are separated from whole blood by density gradient centrifugation using Histopaque®-1077. Blood is diluted 1:1 with Dulbecco's Phosphate Buffered Saline (DPBS) or Hank's Balanced Salts Solution (HBSS). The PBMC layer is collected and washed twice with DPBS or HBSS and resuspended at 4×10^6 cells/mL in RPMI complete. The PBMC suspension is added to 48 well flat bottom sterile tissue culture plates (Costar, Cambridge, Mass. or Becton Dickinson Labware, Lincoln Park, N.J.) containing an equal volume of RPMI complete media containing test compound.
(§3) The compounds are solubilized in dimethyl sulfoxide (DMSO). The DMSO concentration should not exceed a final concentration of 1% for addition to the culture wells. The compounds are generally tested at concentrations ranging from 30-0.014 μM.
(§4) The solution of test compound is added at 60 μM to the first well containing RPMI complete and serial 3 fold dilutions are made in the wells. The PBMC suspension is then added to the wells in an equal volume, bringing the test compound concentrations to the desired range (30-0.014 μM). The final concentration of PBMC suspension is 2×10^6 cells/mL. The plates are covered with sterile plastic lids, mixed gently and then incubated for 18 to 24 hours at 37° C. in a 5% carbon dioxide atmosphere.
(§5) Following incubation the plates are centrifuged for 10 minutes at 1000 rpm (˜200×g) at 4° C. The cell-free culture supernatant is removed with a sterile polypropylene pipet and transferred to sterile polypropylene tubes. Samples are maintained at −30 to −70° C. until analysis. The samples are analyzed for interferon (α) by ELISA and for tumor necrosis factor (α) by ELISA or IGEN Assay
Tumor necrosis factor (α) (TNF) concentration is determined using ELISA kits available from Biosource International, Camarillo, Calif. Alternately, the TNF concentration can be determined by Origen® M-Series Immunoassay and read on an IGEN M-8 analyzer from IGEN International, Gaithersburg, Md. The immunoassay uses a human TNF capture and detection antibody pair from Biosource International, Camarillo, Calif. Results are expressed in pg/mL.
(§6) The table below lists the lowest concentration found to induce interferon and the lowest concentration found to induce tumor necrosis factor for each compound.

interferon (α) = assay: Cytokine Induction in Human Cells: interferon (α) by ELISA; format: cell-based; parameters: key to Lowest Effective Concentration Interferon: A “*” indicates that no induction was seen at any of the tested concentrations; conditions: human PBMC, 18 to 24 hours incubation, compounds generally tested at 30-0.014 μM; for minimal effective concentration: read-out: Lowest Effective Concentration Interferon
Source text: as §1, §2, §3, §4, §5
Interferon (α) concentration is determined by ELISA using a Human Multi-Species kit from PBL Biomedical Laboratories, New Brunswick, N.J. Results are expressed in pg/mL.
as §6

Row | SMILES | Lowest Effective Concentration Tumor Necrosis Factor [1] | Lowest Effective Concentration Interferon (interferon (α)) | minimal effective concentration [1] | minimal effective concentration (interferon (α))
1 | Cc1nc(N)c2ncn(CCCCNC(=O)N3CCOCC3)c2c1C [Example 27, N-[4-(4-amino-6,7-dimethyl-1H-imidazo[4,5-c]pyridin-1-yl)butyl]morpholin-4-ylcarboxamide] | * | * | – | –
2 | CCOCc1nc2c(N)nc(C)c(C)c2n1CCC1CCN(C(=O)N[C@@H]2C[C@H]2c2ccccc2)CC1 (relative stereo) [Example 67, 4-{2-[4-amino-2-(ethoxymethyl)-6,7-dimethyl-1H-imidazo[4,5-c]pyridin-1-yl]ethyl}-N-[(1R*,2S*)-2-phenylcyclopropyl]piperidine-1-carboxamide] | – | – | 3.33 µM | 1.11 µM
3 | CCOCc1nc2c(N)nc(C)cc2n1CCCCNC(=O)NCC(=O)OCC [Example 40] | * | – | – | 3.33 µM
4 | CCOCc1nc2c(N)nc(C)c(C)c2n1CCC1CCN(C(=O)N(C)c2ccccc2)CC1 [Example 68, 4-{2-[4-amino-2-(ethoxymethyl)-6,7-dimethyl-1H-imidazo[4,5-c]pyridin-1-yl]ethyl}-N-methyl-N-phenylpiperidine-1-carboxamide] | – | – | 1.11 µM | 0.37 µM
5 | CCCCNC(=O)NCCCCn1cnc2c(N)nc(C)c(C)c21 [Example 18] | * | * | – | –
6 | Cc1nc(N)c2ncn(CCCCNC(=O)NC(C)(C)C)c2c1C [Example 17] | * | – | – | 30 µM
7 | CCOCc1nc2c(N)nc(C)cc2n1CCCCNC(=O)Nc1cccc(C#N)c1 [Example 41] | – | – | 30 µM | 10 µM
8 | Cc1nc(N)c2ncn(CCCCNC(=O)Nc3cccc(C#N)c3)c2c1C [Example 21] | * | * | – | –
9 | CCOCc1nc2c(N)nc(C)cc2n1CCCCNC(=O)Nc1ccccc1 [Example 39] | – | – | 10 µM | 3.33 µM
10 | CCCCNC(=O)N1CCC(CCn2c(COCC)nc3c(N)nc(C)c(C)c32)CC1 [Example 56] | – | – | 3.33 µM | 1.11 µM
11 | Cc1nc(N)c2ncn(CCCCNC(=S)NCCc3ccccc3)c2c1C [Example 34] | * | * | – | –
12 | CCOCc1nc2c(N)nc(C)c(C)c2n1CCC1CCN(C(=O)Nc2ccccc2)CC1 [Example 57] | – | – | 1.11 µM | 0.37 µM
13 | CCCCc1nc2c(N)nc(C)c(C)c2n1CCCCNC(=S)Nc1ccccc1 [Example 5, N-[4-(4-Amino-2-butyl-6,7-dimethyl-1H-imidazo[4,5-c]pyridin-1-yl)butyl]-N′-phenylthiourea Hydrate] | – | – | 0.12 µM | 0.01 µM
14 | CCOCc1nc2c(N)nc(C)cc2n1CCCCNC(=O)NS(=O)(=O)c1ccccc1 [Example 47] | * | * | – | –
15 | CSc1cccc(NC(=O)NCCCCn2cnc3c(N)nc(C)c(C)c32)c1 [Example 25] | – | * | 3.33 µM | –
16 | CCCCc1nc2c(N)nc(C)c(C)c2n1CCCCNC(=O)c1ccccc1 [Example 1, N-[4-(4-Amino-2-butyl-6,7-dimethyl-1H-imidazo[4,5-c]pyridin-1-yl)butyl]benzamide] | – | – | 1.11 µM | 0.12 µM
17 | CCOCc1nc2c(N)nc(C)c(C)c2n1CCC1CCN(C(=O)Nc2cccc(OC)c2)CC1 [Example 61] | – | – | 1.11 µM | 0.37 µM
18 | CCOCc1nc2c(N)nc(C)c(C)c2n1CCC1CCN(C(=O)NC(C)C)CC1 [Example 54] | – | – | 3.33 µM | 1.11 µM
19 | CNC(=S)NCCCCn1cnc2c(N)nc(C)c(C)c21 [Example 32] | * | * | – | –
20 | Cc1nc(N)c2ncn(CCCCNC(=O)NC3CCCCC3)c2c1C [Example 20] | * | – | – | 30 µM

Row | SMILES | Lowest Effective Concentration Tumor Necrosis Factor [1] | Lowest Effective Concentration Interferon (interferon (α)) | minimal effective concentration [1] | minimal effective concentration (interferon (α))
21 | Cc1nc(N)c2ncn(CCCCNC(=S)Nc3ccccc3)c2c1C [Example 33] | – | – | 3.33 µM | 3.33 µM
22 | COc1ccc(NC(=S)NCCCCn2cnc3c(N)nc(C)c(C)c32)cc1 [Example 35] | – | – | 30 µM | 3.33 µM
23 | Cc1nc(N)c2ncn(CCCCNC(=O)N[C@@H]3C[C@H]3c3ccccc3)c2c1C (relative stereo) [Example 28, N-[4-(4-amino-6,7-dimethyl-1H-imidazo[4,5-c]pyridin-1-yl)butyl]-N′-[(1R*,2S*)-2-phenylcyclopropyl]urea] | * | * | – | –
24 | COc1cccc(NC(=O)NCCCCn2cnc3c(N)nc(C)c(C)c32)c1 [Example 22] | * | * | – | –
25 | CCOCc1nc2c(N)nc(C)c(C)c2n1CCC1CCN(C(=O)Nc2ccc(N(C)C)cc2)CC1 [Example 63] | – | – | 1.11 µM | 0.014 µM
26 | CCOCc1nc2c(N)nc(C)c(C)c2n1CCC1CCN(C(=O)N2CCOCC2)CC1 [Example 66, 2-(ethoxymethyl)-6,7-dimethyl-1-{2-[1-(morpholin-4-ylcarbonyl)piperidin-4-yl]ethyl}-1H-imidazo[4,5-c]pyridin-4-amine] | – | – | 10 µM | 1.11 µM
27 | CCOCc1nc2c(N)nc(C)c(C)c2n1CCC1CCN(C(=S)NC(=O)c2ccco2)CC1 [Example 74, N-[(4-{2-[4-amino-2-(ethoxymethyl)-6,7-dimethyl-1H-imidazo[4,5-c]pyridin-1-yl]ethyl}piperidin-1-yl)carbonothioyl]-2-furamide] | – | – | 1.11 µM | 0.37 µM
28 | CC(=O)c1cccc(NC(=O)NCCCCn2cnc3c(N)nc(C)c(C)c32)c1 [Example 23] | * | * | – | –
29 | CCOCc1nc2c(N)nc(C)cc2n1CCCCNC(=S)Nc1ccccc1 [Example 50] | – | – | 3.33 µM | 0.37 µM
30 | CCOCc1nc2c(N)nc(C)c(C)c2n1CCC1CCN(C(=S)Nc2ccccc2)CC1 [Example 71] | – | – | 3.33 µM | 0.37 µM
31 | Cc1nc(N)c2ncn(CCCCNC(=O)NC(C)C)c2c1C [Example 16] | * | * | – | –
32 | CCOCc1nc2c(N)nc(C)c(C)c2n1CCC1CCN(C(=O)Nc2cccc(C(C)=O)c2)CC1 [Example 62] | – | – | 1.11 µM | 0.37 µM
33 | CCOCc1nc2c(N)nc(C)cc2n1CCCCNC(=O)Nc1cccc(C(C)=O)c1 [Example 42] | – | – | 10 µM | 10 µM
34 | CCOCc1nc2c(N)nc(C)cc2n1CCCCNC(=S)NCCc1ccccc1 [Example 51] | – | – | 10 µM | 3.33 µM
35 | CCOCc1nc2c(N)nc(C)cc2n1CCCCNC(=S)NC [Example 49] | – | – | 30 µM | 3.33 µM
36 | CCOCc1nc2c(N)nc(C)c(C)c2n1CCC1CCN(C(=O)NS(=O)(=O)c2ccccc2)CC1 [Example 69] | * | – | – | 3.33 µM
37 | Cc1nc(N)c2ncn(CCCCNC(=O)Nc3ccc(N(C)C)cc3)c2c1C [Example 24] | – | – | 30 µM | 10 µM
38 | CCOCc1nc2c(N)nc(C)cc2n1CCCCNC(=O)NC(C)C [Example 36] | – | – | 30 µM | 1.11 µM
39 | CCOCc1nc2c(N)nc(C)c(C)c2n1CCC1CCN(C(=O)NS(=O)(=O)c2ccc(Cl)cc2)CC1 [Example 70] | * | – | – | 10 µM
